Paper PMC6035379 (Journal of Ginseng Research, 2017)
Counter-ions that a name gives are not always drawn.

Tests used:
CYP1A1 = details: HepG2 cells; cited from earlier work
CYP3A4 = details: cited from earlier work
CYP2C9 = details: cited from earlier work
CYP2D6 = details: cited from earlier work
CYP2C19 = details: cited from earlier work
[1] = type: in vivo; details: rats; fexofenadine 10 mg/kg oral; control group without KRG
drug-resistant KBV cells = details: cited from earlier work
P-gp = details: cited from earlier work

## CC(C)=CCC[C@](C)(O[C@@H]1O[C@H](CO[C@@H]2OC[C@H](O)[C@H](O)[C@H]2O)[C@@H](O)[C@H](O)[C@H]1O)[C@H]1CC[C@]2(C)[C@@H]1[C@H](O)C[C@@H]1[C@@]3(C)CC[C@H](O[C@@H]4O[C@H](CO)[C@@H](O)[C@H](O)[C@H]4O[C@@H]4O[C@H](CO)[C@@H](O)[C@H](O)[C@H]4O)C(C)(C)[C@@H]3CC[C@]12C [ginsenoside Rb2]
CYP1A1
  mRNA level of CYP1A1: significantly increased

## CC(C)=CCC[C@](C)(O[C@@H]1O[C@H](CO)[C@@H](O)[C@H](O)[C@H]1O)[C@H]1CC[C@]2(C)[C@@H]1[C@H](O)C[C@@H]1[C@@]3(C)CC[C@H](O[C@@H]4O[C@H](CO)[C@@H](O)[C@H](O)[C@H]4O[C@@H]4O[C@H](CO)[C@@H](O)[C@H](O)[C@H]4O)C(C)(C)[C@@H]3CC[C@]12C [ginsenoside Rd]
CYP3A4
  inhibition of CYP3A4: weak inhibition
CYP2C9
  inhibition of CYP2C9: weak inhibition
CYP2D6
  inhibition of CYP2D6: weak inhibition
CYP2C19
  inhibition of CYP2C19: weak inhibition

## CC(C)(C(=O)O)c1ccc(C(O)CCCN2CCC(C(O)(c3ccccc3)c3ccccc3)CC2)cc1 (stereo not drawn) [fexofenadine, Fexofenadine hydrochloride]
[1]
  mean maximum concentration of fexofenadine: 32 ng/mL

## CC(C)=CCC[C@](C)(O[C@@H]1O[C@H](CO)[C@@H](O)[C@H](O)[C@H]1O)[C@H]1CC[C@]2(C)[C@@H]1[C@H](O)C[C@@H]1[C@@]3(C)CC[C@H](O)C(C)(C)[C@@H]3[C@@H](O[C@@H]3O[C@H](CO)[C@@H](O)[C@H](O)[C@H]3O)C[C@]12C [ginsenoside Rg1]
CYP1A1
  mRNA level of CYP1A1: significantly increased

## CC(C)=CCC[C@](C)(O)[C@H]1CC[C@]2(C)[C@@H]1[C@H](O)C[C@@H]1[C@@]3(C)CC[C@H](O[C@@H]4O[C@H](CO)[C@@H](O)[C@H](O)[C@H]4O[C@@H]4O[C@H](CO)[C@@H](O)[C@H](O)[C@H]4O)C(C)(C)[C@@H]3CC[C@]12C [ginsenoside Rg3]
drug-resistant KBV cells
  (3H) vinblastine efflux: inhibited

## Cc1ncc2n1-c1ccc(Cl)cc1C(c1ccccc1F)=NC2 [midazolam]
P-gp
  transport by P-gp: not transported
